From PubChem BioAssay AID248 (DTP/NCI, 2004)
Values joined by “and” are separate entries in the source; they are usually repeats but may differ in a detail not shown here. Equal entries are not always repeated. Toxic doses and inconclusive results are not listed. Rule as the data show it: active = T/C of 150% or more; inactive = T/C below 125%.

Tested on: L1210 leukemia ip in BDF1 mice, survival T/C
Test: NCI In Vivo Anticancer Drug Screen. Data for tumor model L1210 Leukemia (intraperitoneal) in B6D2F1 (BDF1) mice
Conditions: endpoint: mean survival time, higher = longer survival
Procedure, shortened: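 Read-out is survival time, reported as the treated-group measurement over the vehicle-control measurement.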

[1] = dose: 25.0 mg/kg/injection, schedule: Q01DX009 (ip), vehicle: saline
[2] = dose: 50.0 mg/kg/injection, schedule: Q01DX009 (ip), vehicle: saline
[3] = dose: 100.0 mg/kg/injection, schedule: Q04DX003 (ip), vehicle: Klucel (hydroxypropylcellulose) (HPC)
[4] = dose: 200.0 mg/kg/injection, schedule: Q04DX003 (ip), vehicle: Klucel (hydroxypropylcellulose) (HPC)
[5] = dose: 400.0 mg/kg/injection, schedule: Q04DX003 (ip), vehicle: Klucel (hydroxypropylcellulose) (HPC)
[6] = dose: 100.0 mg/kg/injection, schedule: Q04DX002 (ip), vehicle: Klucel (hydroxypropylcellulose) (HPC)
[7] = dose: 200.0 mg/kg/injection, schedule: Q04DX002 (ip), vehicle: Klucel (hydroxypropylcellulose) (HPC)
[8] = dose: 400.0 mg/kg/injection, schedule: Q04DX002 (ip), vehicle: Klucel (hydroxypropylcellulose) (HPC)
[9] = dose: 100.0 mg/kg/injection, schedule: Q01DX009 (ip), vehicle: Klucel (hydroxypropylcellulose) (HPC)

Measured: T/C

CCCCCC(C)NC(=O)N(CCCl)N=O (configuration not stated) (tested in a mixture with another compound)
active: dose: 27.0 mg/kg/injection, schedule: Q01DX001 (ip), vehicle: saline with Tween-80 169 % of control | dose: 40.0 mg/kg/injection, schedule: Q01DX001 (ip), vehicle: saline with Tween-80 151 % of control | dose: 60.0 mg/kg/injection, schedule: Q01DX001 (ip), vehicle: saline with Tween-80 200 % of control | dose: 90.0 mg/kg/injection, schedule: Q01DX001 (ip), vehicle: saline with Tween-80 210 % of control
inactive: dose: 12.0 mg/kg/injection, schedule: Q01DX001 (ip), vehicle: saline with Tween-80 109 % of control | dose: 18.0 mg/kg/injection, schedule: Q01DX001 (ip), vehicle: saline with Tween-80 116 % of control | dose: 133.0 mg/kg/injection, schedule: Q01DX001 (ip), vehicle: saline with Tween-80 88 % of control

IC1=CC2CCC(C1)C2 (configuration not stated)
inactive: dose: 100.0 mg/kg/injection, schedule: Q01DX009 (ip), vehicle: acetone 109 % of control | dose: 200.0 mg/kg/injection, schedule: Q01DX009 (ip), vehicle: acetone 97 % of control

c1ccc2c(c1)C[N+]1(Cc3ccccc3-2)CC12CCCCC2
inactive: dose: 12.0 mg/kg/injection, schedule: Q01DX009 (ip), vehicle: saline 110 % of control | [1] 104 % of control | [2] 100 % of control

CCS/C(N)=N\N
inactive: dose: 12.5 mg/kg/injection, schedule: Q01DX009 (ip), vehicle: saline 95 % of control | [1] 98 % of control | dose: 25.0 mg/kg/injection, schedule: Q04DX003 (ip), vehicle: saline 113 % of control | [2] 104 % of control | dose: 50.0 mg/kg/injection, schedule: Q04DX003 (ip), vehicle: saline 98 % of control

O=C1c2ccccc2C(=O)N1c1ccc(Br)cc1
inactive: dose: 100.0 mg/kg/injection, schedule: Q01DX001 (ip), vehicle: Klucel (hydroxypropylcellulose) (HPC) 101 % of control | dose: 200.0 mg/kg/injection, schedule: Q01DX001 (ip), vehicle: Klucel (hydroxypropylcellulose) (HPC) 104 % of control | dose: 400.0 mg/kg/injection, schedule: Q01DX001 (ip), vehicle: Klucel (hydroxypropylcellulose) (HPC) 104 % of control

CCn1c(N)cc(=O)[nH]c1=S
inactive: dose: 50.0 mg/kg/injection, schedule: Q01DX001 (ip), vehicle: saline 96 % of control | dose: 100.0 mg/kg/injection, schedule: Q01DX001 (ip), vehicle: saline 108 % of control | dose: 200.0 mg/kg/injection, schedule: Q01DX001 (ip), vehicle: saline 102 % of control | dose: 400.0 mg/kg/injection, schedule: Q01DX001 (ip), vehicle: saline 106 % of control

CC(CC(O)c1ccccc1)c1ccccc1 (configuration not stated)
inactive: dose: 100.0 mg/kg/injection, schedule: Q01DX009 (ip), vehicle: saline 102 % of control | [3] 98 % of control | dose: 200.0 mg/kg/injection, schedule: Q01DX009 (ip), vehicle: saline 97 % of control | [4] 104 % of control | dose: 400.0 mg/kg/injection, schedule: Q01DX009 (ip), vehicle: saline 98 % of control | [5] 104 % of control

CC(=O)c1ccc2c3c(cccc13)CC2
inactive: dose: 100.0 mg/kg/injection, schedule: Q01DX009 (ip), vehicle: saline with Tween-80 102 % of control | dose: 100.0 mg/kg/injection, schedule: Q04DX003 (ip), vehicle: saline with Tween-80 88 % of control | dose: 200.0 mg/kg/injection, schedule: Q01DX009 (ip), vehicle: saline with Tween-80 98 % of control | dose: 200.0 mg/kg/injection, schedule: Q04DX003 (ip), vehicle: saline with Tween-80 104 % of control | dose: 400.0 mg/kg/injection, schedule: Q01DX009 (ip), vehicle: saline with Tween-80 101 % of control | dose: 400.0 mg/kg/injection, schedule: Q04DX003 (ip), vehicle: saline with Tween-80 97 % of control

NC(=O)NC(=O)c1nc2ccccc2[nH]c1=O
inactive: [6] 95 % of control | [7] 95 % of control | [8] 100 % of control

CCCCNS(=O)(=O)c1ccc(N)cc1
inactive: dose: 100.0 mg/kg/injection, schedule: Q01DX009 (ip), vehicle: saline sonified 102 % of control | [3] 98 % of control | dose: 200.0 mg/kg/injection, schedule: Q01DX009 (ip), vehicle: saline sonified 102 % of control | [4] 109 % of control | dose: 400.0 mg/kg/injection, schedule: Q01DX009 (ip), vehicle: saline sonified 98 % of control | [5] 117 % of control

COc1ccc(C(=O)C(=O)c2ccc(OC)cc2)cc1
inactive: [6] 98 % of control | [7] 98 % of control | [8] 95 % of control

COc1ccc(Cl)cc1NC(=O)N(CCCl)N=O
active: dose: 6.0 mg/kg/injection, schedule: Q01DX009 (ip), vehicle: carboxymethylcellulose (CMC) 153 % of control | dose: 8.8 mg/kg/injection, schedule: Q01DX009 (ip), vehicle: carboxymethylcellulose (CMC) 166 % of control | dose: 15.0 mg/kg/injection, schedule: Q01DX001 (ip), vehicle: carboxymethylcellulose (CMC) 151 % of control | dose: 17.0 mg/kg/injection, schedule: Q01DX001 (ip), vehicle: Klucel (hydroxypropylcellulose) (HPC) 158 % of control | dose: 17.0 mg/kg/injection, schedule: Q01DX009 (ip), vehicle: Klucel (hydroxypropylcellulose) (HPC) 174 % of control | dose: 26.0 mg/kg/injection, schedule: Q01DX001 (ip), vehicle: carboxymethylcellulose (CMC) 151 % of control and 196 % of control | dose: 30.0 mg/kg/injection, schedule: Q01DX001 (ip), vehicle: carboxymethylcellulose (CMC) 151 % of control
inactive: dose: 0.1 mg/kg/injection, schedule: Q01DX009 (ip), vehicle: carboxymethylcellulose (CMC) 103 % of control | dose: 1.0 mg/kg/injection, schedule: Q01DX001 (ip), vehicle: carboxymethylcellulose (CMC) 122 % of control | dose: 1.0 mg/kg/injection, schedule: Q01DX009 (ip), vehicle: Klucel (hydroxypropylcellulose) (HPC) 105 % of control | dose: 2.0 mg/kg/injection, schedule: Q01DX001 (ip), vehicle: carboxymethylcellulose (CMC) 117 % of control | dose: 2.12 mg/kg/injection, schedule: Q01DX001 (ip), vehicle: Klucel (hydroxypropylcellulose) (HPC) 117 % of control | dose: 4.25 mg/kg/injection, schedule: Q01DX001 (ip), vehicle: Klucel (hydroxypropylcellulose) (HPC) 119 % of control | dose: 5.0 mg/kg/injection, schedule: Q01DX009 (ip), vehicle: Klucel (hydroxypropylcellulose) (HPC) 105 % of control | dose: 20.0 mg/kg/injection, schedule: Q01DX009 (ip), vehicle: carboxymethylcellulose (CMC) 100 % of control | dose: 26.0 mg/kg/injection, schedule: Q01DX009 (ip), vehicle: Klucel (hydroxypropylcellulose) (HPC) 87 % of control | dose: 30.0 mg/kg/injection, schedule: Q01DX009 (ip), vehicle: carboxymethylcellulose (CMC) 98 % of control | dose: 40.0 mg/kg/injection, schedule: Q01DX001 (ip), vehicle: carboxymethylcellulose (CMC) 93 % of control | dose: 75.0 mg/kg/injection, schedule: Q01DX001 (ip), vehicle: carboxymethylcellulose (CMC) 95 % of control

Cc1ccc(C)n1-c1ccccc1C(=O)O
inactive: [9] 95 % of control | [3] 93 % of control | dose: 200.0 mg/kg/injection, schedule: Q01DX009 (ip), vehicle: Klucel (hydroxypropylcellulose) (HPC) 107 % of control | [4] 106 % of control | dose: 400.0 mg/kg/injection, schedule: Q01DX009 (ip), vehicle: Klucel (hydroxypropylcellulose) (HPC) 101 % of control | [5] 101 % of control

NC1=NC(=S)C2N=C(N=Nc3ccc(C(=O)NC(CCC(=O)O)C(=O)O)cc3)N=C2N1 (configuration not stated)
inactive: dose: 25.0 mg/kg/injection, schedule: Q01DX009 (ip), vehicle: Klucel (hydroxypropylcellulose) (HPC) 120 % of control | dose: 50.0 mg/kg/injection, schedule: Q01DX009 (ip), vehicle: Klucel (hydroxypropylcellulose) (HPC) 121 % of control | dose: 50.0 mg/kg/injection, schedule: Q04DX003 (ip), vehicle: Klucel (hydroxypropylcellulose) (HPC) 114 % of control | [9] 88 % of control
active: dose: 1.56 mg/kg/injection, schedule: Q01DX009 (ip), vehicle: Klucel (hydroxypropylcellulose) (HPC) 156 % of control and 177 % of control and 194 % of control | dose: 3.13 mg/kg/injection, schedule: Q01DX009 (ip), vehicle: Klucel (hydroxypropylcellulose) (HPC) 189 % of control

O=C1NC2(C=CC(Br)CC2)C(=O)C12CCCCC2 (configuration not stated)
inactive: dose: 75.0 mg/kg/injection, schedule: Q01DX001 (ip), vehicle: saline 104 % of control | dose: 150.0 mg/kg/injection, schedule: Q01DX001 (ip), vehicle: saline 100 % of control | dose: 300.0 mg/kg/injection, schedule: Q01DX001 (ip), vehicle: saline 102 % of control
